This passage reports Control and IC50 results from ChEMBL document CHEMBL1130059, “Neurotrophic 3,9-bis[(alkylthio)methyl]-and-bis(alkoxymethyl)-K-252a derivatives” (J Med Chem, 1997).

Where only a bound is given, the exact number is not on record here.

For test [1], the target named is T1, Choline O-acetyltransferase (Rattus norvegicus) (UniProt P32738).
T1 sequence (whole entry): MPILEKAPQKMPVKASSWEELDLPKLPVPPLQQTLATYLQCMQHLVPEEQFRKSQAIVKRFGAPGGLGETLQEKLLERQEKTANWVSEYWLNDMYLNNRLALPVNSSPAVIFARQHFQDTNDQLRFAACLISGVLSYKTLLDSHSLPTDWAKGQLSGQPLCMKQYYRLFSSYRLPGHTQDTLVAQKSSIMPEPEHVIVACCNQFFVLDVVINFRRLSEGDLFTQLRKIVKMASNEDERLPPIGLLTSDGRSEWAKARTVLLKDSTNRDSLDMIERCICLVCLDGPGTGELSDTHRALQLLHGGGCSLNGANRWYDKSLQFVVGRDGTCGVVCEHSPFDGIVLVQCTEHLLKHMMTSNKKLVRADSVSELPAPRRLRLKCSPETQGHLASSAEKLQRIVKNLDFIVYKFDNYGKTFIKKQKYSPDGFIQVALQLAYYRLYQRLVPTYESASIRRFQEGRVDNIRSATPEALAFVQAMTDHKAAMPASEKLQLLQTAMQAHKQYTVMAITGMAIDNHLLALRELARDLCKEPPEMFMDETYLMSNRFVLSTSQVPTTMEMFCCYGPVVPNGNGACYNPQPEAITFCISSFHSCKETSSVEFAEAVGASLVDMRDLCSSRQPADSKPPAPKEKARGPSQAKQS
The test is described as follows: Neurotrophic activity as measured by the ability to enhance basal forebrain choline acetyl transferase at 50 nM. The class given is functional.

For test [2], the target named is T1, Choline O-acetyltransferase (Rattus norvegicus). The test is described as follows: Neurotrophic activity as measured by the ability to enhance embryonic rat spinal cord choline acetyl transferase at 300 nM. The class given is functional.
Test [3] has the same target. The test is described as follows: Neurotrophic activity as measured by the ability to enhance embryonic rat spinal cord choline acetyl transferase at 30 nM. The class given is functional.
Test [4] concerns the target High affinity nerve growth factor receptor (Homo sapiens, UniProt P04629). The test is described as follows: Ability to inhibit human trk A tyrosine kinase expressed in baculovirus using ELISA based enzyme assay was determined.
The target of test [5] is T1, Choline O-acetyltransferase (Rattus norvegicus). The test can be described thus: Neurotrophic activity as measured by the ability to enhance basal forebrain choline acetyl transferase at 250 nM. The class given is functional.
In a further test the target is Protein kinase C (PKC). The test is described as follows: Inhibition of Protein kinase C of Rat brain.
For test [6], the target named is cAMP-dependent protein kinase alpha-catalytic subunit (Oryctolagus cuniculus, UniProt Q95J97). The test can be described thus: Inhibition of cAMP dependent Protein kinase A of rabbit Skeletal Muscle.
Test [7] addresses Myosin light chain kinase, smooth muscle (Gallus gallus, UniProt P11799). The test is described as follows: Inhibition of Smooth muscle myosin light chain kinase of chicken gizzard.

High affinity nerve growth factor receptor, sequence (P04629 whole entry): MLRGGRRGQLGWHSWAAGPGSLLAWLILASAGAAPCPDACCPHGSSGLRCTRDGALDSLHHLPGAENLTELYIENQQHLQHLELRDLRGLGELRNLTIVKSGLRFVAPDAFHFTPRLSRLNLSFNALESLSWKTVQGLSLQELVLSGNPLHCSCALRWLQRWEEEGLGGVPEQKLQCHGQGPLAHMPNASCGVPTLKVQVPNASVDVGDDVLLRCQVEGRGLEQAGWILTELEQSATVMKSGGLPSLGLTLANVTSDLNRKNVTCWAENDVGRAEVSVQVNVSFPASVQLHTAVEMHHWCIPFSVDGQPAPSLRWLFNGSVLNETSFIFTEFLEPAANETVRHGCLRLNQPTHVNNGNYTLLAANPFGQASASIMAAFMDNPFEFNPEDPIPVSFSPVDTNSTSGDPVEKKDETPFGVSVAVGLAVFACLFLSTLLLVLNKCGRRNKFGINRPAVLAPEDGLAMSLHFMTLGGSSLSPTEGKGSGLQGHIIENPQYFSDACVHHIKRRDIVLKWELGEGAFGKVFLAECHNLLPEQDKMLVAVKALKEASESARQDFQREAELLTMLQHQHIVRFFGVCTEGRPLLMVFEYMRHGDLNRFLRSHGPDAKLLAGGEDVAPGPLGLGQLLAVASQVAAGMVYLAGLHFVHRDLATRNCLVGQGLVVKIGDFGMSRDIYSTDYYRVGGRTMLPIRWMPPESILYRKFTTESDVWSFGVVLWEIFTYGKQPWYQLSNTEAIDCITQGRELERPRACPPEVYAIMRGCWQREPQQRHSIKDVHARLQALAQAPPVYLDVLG
Myosin light chain kinase, smooth muscle, sequence (P11799 whole entry): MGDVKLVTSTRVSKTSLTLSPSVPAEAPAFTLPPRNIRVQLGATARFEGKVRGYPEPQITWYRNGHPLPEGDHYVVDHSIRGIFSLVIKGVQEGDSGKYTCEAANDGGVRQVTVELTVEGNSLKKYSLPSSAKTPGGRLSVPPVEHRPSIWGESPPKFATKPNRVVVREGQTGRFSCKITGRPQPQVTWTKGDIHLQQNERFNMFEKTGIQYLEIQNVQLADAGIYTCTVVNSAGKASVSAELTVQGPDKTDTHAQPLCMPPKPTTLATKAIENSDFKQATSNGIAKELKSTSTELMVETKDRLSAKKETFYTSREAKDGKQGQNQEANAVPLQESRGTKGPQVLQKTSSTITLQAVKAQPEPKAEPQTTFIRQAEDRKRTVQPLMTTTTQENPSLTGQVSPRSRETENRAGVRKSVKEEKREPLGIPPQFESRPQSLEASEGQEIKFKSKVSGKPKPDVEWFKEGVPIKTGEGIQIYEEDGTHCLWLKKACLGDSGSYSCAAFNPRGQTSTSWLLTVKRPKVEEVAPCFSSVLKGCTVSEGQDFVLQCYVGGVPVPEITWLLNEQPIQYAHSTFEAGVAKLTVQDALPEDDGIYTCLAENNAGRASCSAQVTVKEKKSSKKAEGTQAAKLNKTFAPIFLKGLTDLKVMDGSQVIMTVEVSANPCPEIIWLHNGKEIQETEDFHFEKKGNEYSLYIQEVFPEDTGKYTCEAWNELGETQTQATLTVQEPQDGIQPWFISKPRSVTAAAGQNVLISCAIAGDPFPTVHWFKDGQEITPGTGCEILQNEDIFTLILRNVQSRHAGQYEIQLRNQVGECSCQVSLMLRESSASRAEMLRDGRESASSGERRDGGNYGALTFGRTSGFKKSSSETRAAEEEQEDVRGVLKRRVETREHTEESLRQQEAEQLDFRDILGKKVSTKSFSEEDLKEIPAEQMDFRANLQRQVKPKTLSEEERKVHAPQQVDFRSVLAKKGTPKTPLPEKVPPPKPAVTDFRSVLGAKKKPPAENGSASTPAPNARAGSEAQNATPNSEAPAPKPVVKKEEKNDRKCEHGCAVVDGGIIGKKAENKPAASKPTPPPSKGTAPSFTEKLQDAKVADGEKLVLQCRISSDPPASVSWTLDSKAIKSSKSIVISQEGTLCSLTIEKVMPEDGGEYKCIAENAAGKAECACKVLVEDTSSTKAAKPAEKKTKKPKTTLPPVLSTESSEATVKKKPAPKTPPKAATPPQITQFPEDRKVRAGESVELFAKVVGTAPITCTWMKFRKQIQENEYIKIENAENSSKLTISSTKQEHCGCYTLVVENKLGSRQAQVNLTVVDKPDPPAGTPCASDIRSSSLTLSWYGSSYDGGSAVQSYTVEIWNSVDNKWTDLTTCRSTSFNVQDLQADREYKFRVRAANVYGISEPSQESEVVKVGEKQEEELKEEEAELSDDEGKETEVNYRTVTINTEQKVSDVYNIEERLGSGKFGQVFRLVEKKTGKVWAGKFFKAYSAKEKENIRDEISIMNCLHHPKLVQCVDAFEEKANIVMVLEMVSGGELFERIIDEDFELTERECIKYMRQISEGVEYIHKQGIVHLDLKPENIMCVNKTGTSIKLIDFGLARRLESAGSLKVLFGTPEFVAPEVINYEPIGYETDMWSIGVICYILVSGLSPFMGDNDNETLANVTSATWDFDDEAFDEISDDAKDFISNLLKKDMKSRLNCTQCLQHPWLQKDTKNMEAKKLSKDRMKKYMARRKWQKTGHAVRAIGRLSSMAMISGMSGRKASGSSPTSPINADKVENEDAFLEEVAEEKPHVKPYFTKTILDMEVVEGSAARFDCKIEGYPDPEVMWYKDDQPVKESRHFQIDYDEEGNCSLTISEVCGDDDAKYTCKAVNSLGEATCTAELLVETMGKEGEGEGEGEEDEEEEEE

The IC50 is the midpoint of a concentration-inhibition curve. High values mean weaker potency, low ones greater potency. Regarding `COC(=O)[C@@]1(O)CC2O[C@]1(C)n1c3ccc(CSC(C)C)cc3c3c4c(c5c6cc(CSC(C)C)ccc6n2c5c31)C(=O)NC4`, the Control in test [1] is 224%; in test [2], 289%; in test [3], under 120%. Besides, the IC50 in test [4] was over 1000 nM.
On to `COC(=O)[C@@]1(O)CC2O[C@]1(C)n1c3ccc(CSCCN(C)C)cc3c3c4c(c5c6cc(CSCCN(C)C)ccc6n2c5c31)C(=O)NC4`, for which the Control in test [5] was 158%; in test [1] it was under 120%; in test [2] it was 208%; in test [3], under 120%.
Turning to `CCCSCc1ccc2c(c1)c1c3c(c4c5cc(CSCCC)ccc5n5c4c1n2C1C[C@](O)(C(=O)OC)[C@]5(C)O1)CNC3=O`, the Control was 180% in test [5], under 120% in test [1], 315% in test [2] and under 120% in test [3]. In test [4], this compound yielded an IC50 of over 1000 nM.
For `CCOCc1ccc2c(c1)c1c3c(c4c5cc(COCC)ccc5n5c4c1n2C1C[C@](O)(C(=O)OC)[C@]5(C)O1)CNC3=O`, the Control in test [5] is 237%; in test [1], under 120%; in test [2], 188%; in test [3], 153%. The IC50 in test [4] was 210 nM.
The corresponding values for `CCCCSCc1ccc2c(c1)c1c3c(c4c5cc(CSCCCC)ccc5n5c4c1n2C1C[C@](O)(C(=O)OC)[C@]5(C)O1)CNC3=O` are 200%, 143%, 289%, under 120% and over 1000 nM.
As for `CCSCc1ccc2c(c1)c1c3c(c4c5cc(CSCC)ccc5n5c4c1n2C1C[C@](O)(C(=O)OC)[C@]5(C)O1)CNC3=O`, the Control in test [5] was 363%; in test [1], 143%; in test [2] it was 280%; in test [3], 140%. The IC50 against Protein kinase C (PKC) was 16300 nM; in test [6], over 10000 nM; in test [7], over 10000 nM; in test [4], over 1000 nM.
Consider `COC(=O)[C@@]1(O)CC2O[C@]1(C)n1c3ccc(CO)cc3c3c4c(c5c6cc(CO)ccc6n2c5c31)C(=O)NC4`, for which the Control in test [2] and in test [3] was under 120% each time.
For `COC(=O)[C@@]1(O)C[C@H]2O[C@]1(C)n1c3ccccc3c3c4c(c5c6ccccc6n2c5c31)C(=O)NC4` [K-252A], the Control in test [5] is 325%; in test [1], 148%; in test [2], 186%; in test [3], under 120%. Moreover, the IC50 in test [6] was 16 nM; in test [7], 20 nM.
With `C=CCSCc1ccc2c(c1)c1c3c(c4c5cc(CSCC=C)ccc5n5c4c1n2C1C[C@](O)(C(=O)OC)[C@]5(C)O1)CNC3=O`, the Control was 191% in test [5], under 120% in test [1], 302% in test [2] and under 120% in test [3]. This compound returned an IC50 in test [4] of over 1000 nM.
`COCc1ccc2c(c1)c1c3c(c4c5cc(COC)ccc5n5c4c1n2C1C[C@](O)(C(=O)OC)[C@]5(C)O1)CNC3=O`: the Control in test [5] amounted to 340%; in test [1] it was 168%; in test [2] it was 218%; in test [3], 193%. Further, in test [4], it took 270 nM to reach half-maximal inhibition (IC50).
